Laboratory results as given in patent US12077503B2, “Substituted cyclic amides and their use as herbicides” (FMC CORPORATION, priority 2015, dated 2024).

Tests used:
Type in all cases: in vivo
[1] = system: barnyardgrass (Echinochloa crus-galli); assay: Test B flooded paddy test; settings: Echinochloa crus-galli, 250 g ai/ha, Flood; 0 to 100 scale where 0 is no effect and 100 is complete control; read-out: Barnyardgrass plant response rating
Outline: (§1)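 Evaluation by eye, against controls, occurred 13–15 d post-treatment in a greenhouse, using a 0 (no effect) to 100 (complete control) scale. Application was into the paddy water, 3 cm deep over the soil, on 2-leaf plants.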

[2] = system: ducksalad (Heteranthera limosa); assay: Test B flooded paddy test; settings: Heteranthera limosa, 250 g ai/ha, Flood; 0 to 100 scale where 0 is no effect and 100 is complete control; read-out: Ducksalad plant response rating
Outline: as §1

[3] = system: sedge, umbrella (small-flower umbrella sedge, Cyperus difformis); assay: Test B flooded paddy test; settings: Cyperus difformis, 250 g ai/ha, Flood; 0 to 100 scale where 0 is no effect and 100 is complete control; read-out: Sedge, Umbrella plant response rating
Outline: as §1

rice (Oryra sativa) = assay: Test B flooded paddy test; settings: Oryza sativa, 250 g ai/ha, Flood; 0 to 100 scale where 0 is no effect and 100 is complete control; read-out: Rice plant response rating
Outline: as §1

[4] = system: ragweed (common ragweed, Ambrosia elatior); assay: Test A postemergence; settings: Ambrosia artemisiifolia, post-emergence, 240 h, Postemergence, read-out: Ragweed plant response rating (0 to 100 scale); for pest or weed control at 125 g/ha: 125 g ai/ha, visual rating about 10 d after treatment; for pest or weed control at 31 g/ha: 31 g ai/ha, 0 is no effect, 100 is complete control
Outline: (§2)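 Preemergence directed soil spray on seeded pots, or postemergence application to plants 2–10 cm, one- to two-leaf. Solvent mixture non-phytotoxic, with surfactant. Scored ~10 d later, visually, 0–100 vs untreated.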

[5] = system: barnyardgrass (Echinochloa crus-galli); assay: Test A postemergence; settings: Echinochloa crus-galli, post-emergence, 240 h, Postemergence; for pest or weed control at 125 g/ha: 125 g ai/ha, visual rating about 10 d after treatment, read-out: Barnyardgrass plant response rating (0 to 100 scale, 0 no effect, 100 complete control); for pest or weed control at 31 g/ha: 31 g ai/ha, 0 is no effect, 100 is complete control, read-out: Barnyardgrass plant response rating (0 to 100 scale)
Outline: as §2

Kochia (Kochia scoparia) [6] = assay: Test A postemergence; settings: Bassia scoparia, post-emergence, 240 h, Postemergence, read-out: Kochia plant response rating (0 to 100 scale); for pest or weed control at 125 g/ha: 125 g ai/ha, visual rating about 10 d after treatment; for pest or weed control at 31 g/ha: 31 g ai/ha, 0 is no effect, 100 is complete control
Outline: as §2

[7] = system: wheat (Triticum aestivum); assay: Test A postemergence; settings: Triticum aestivum, post-emergence, 240 h, Postemergence, read-out: Wheat plant response rating (0 to 100 scale); for plant injury at 125 g/ha: 125 g ai/ha, visual rating about 10 d after treatment; for plant injury at 31 g/ha: 31 g ai/ha, 0 is no effect, 100 is complete control
Outline: as §2

[8] = system: Galium (catchweed bedstraw, Galium aparine); assay: Test A postemergence; settings: Galium, post-emergence, 240 h, Postemergence, read-out: Galium plant response rating (0 to 100 scale); for pest or weed control at 125 g/ha: 125 g ai/ha, visual rating about 10 d after treatment; for pest or weed control at 31 g/ha: 31 g ai/ha, 0 is no effect, 100 is complete control
Outline: as §2

[9] = system: ryegrass, Italian (Italian ryegrass, Lolium multiflorum); assay: Test A postemergence; settings: Lolium multiflorum, post-emergence, 240 h, Postemergence, read-out: Ryegrass, Italian plant response rating (0 to 100 scale); for pest or weed control at 125 g/ha: 125 g ai/ha, visual rating about 10 d after treatment; for pest or weed control at 31 g/ha: 31 g ai/ha, 0 is no effect, 100 is complete control
Outline: as §2

[10] = system: giant foxtail (Setaria faberii); assay: Test A postemergence; settings: Setaria faberi, post-emergence, 240 h, Postemergence, read-out: Foxtail, Giant plant response rating (0 to 100 scale); for pest or weed control at 125 g/ha: 125 g ai/ha, visual rating about 10 d after treatment; for pest or weed control at 31 g/ha: 31 g ai/ha, 0 is no effect, 100 is complete control
Outline: as §2

[11] = system: pigweed (Amaranthus retroflexus); assay: Test A postemergence; settings: Amaranthus retroflexus, post-emergence, 240 h, Postemergence, read-out: Pigweed plant response rating (0 to 100 scale); for pest or weed control at 125 g/ha: 125 g ai/ha, visual rating about 10 d after treatment; for pest or weed control at 31 g/ha: 31 g ai/ha, 0 is no effect, 100 is complete control
Outline: as §2

[12] = system: blackgrass (Alopecurus myosuroides); assay: Test A postemergence; settings: Alopecurus myosuroides, post-emergence, 240 h, Postemergence, read-out: Blackgrass plant response rating (0 to 100 scale); for pest or weed control at 125 g/ha: 125 g ai/ha, visual rating about 10 d after treatment; for pest or weed control at 31 g/ha: 31 g ai/ha, 0 is no effect, 100 is complete control
Outline: as §2

corn (Zea mays) = assay: Test A postemergence; settings: Zea mays, post-emergence, 240 h, Postemergence, read-out: Corn plant response rating (0 to 100 scale); for plant injury at 125 g/ha: 125 g ai/ha, visual rating about 10 d after treatment; for plant injury at 31 g/ha: 31 g ai/ha, 0 is no effect, 100 is complete control
Outline: as §2

[13] = system: ragweed (common ragweed, Ambrosia elatior); assay: Test A preemergence; settings: Ambrosia artemisiifolia, pre-emergence, 240 h, 0 to 100 scale where 0 is no effect and 100 is complete control, read-out: Ragweed plant response rating; for pest or weed control at 31 g/ha: 31 g ai/ha, Preemergence; for pest or weed control at 125 g/ha: 125 g ai/ha, preemergence, visual injury rating, approximately 10 d
Outline: as §2

[14] = system: barnyardgrass (Echinochloa crus-galli); assay: Test A preemergence; settings: Echinochloa crus-galli, pre-emergence, 240 h, 0 to 100 scale where 0 is no effect and 100 is complete control, read-out: Barnyardgrass plant response rating; for pest or weed control at 31 g/ha: 31 g ai/ha, Preemergence; for pest or weed control at 125 g/ha: 125 g ai/ha, preemergence, visual injury rating, approximately 10 d
Outline: as §2

Kochia (Kochia scoparia) [15] = assay: Test A preemergence; settings: Bassia scoparia, pre-emergence, 240 h, 0 to 100 scale where 0 is no effect and 100 is complete control, read-out: Kochia plant response rating; for pest or weed control at 31 g/ha: 31 g ai/ha, Preemergence; for pest or weed control at 125 g/ha: 125 g ai/ha, preemergence, visual injury rating, approximately 10 d
Outline: as §2

[16] = system: ryegrass, Italian (Italian ryegrass, Lolium multiflorum); assay: Test A preemergence; settings: Lolium multiflorum, pre-emergence, 240 h, 0 to 100 scale where 0 is no effect and 100 is complete control, read-out: Ryegrass, Italian plant response rating; for pest or weed control at 31 g/ha: 31 g ai/ha, Preemergence; for pest or weed control at 125 g/ha: 125 g ai/ha, preemergence, visual injury rating, approximately 10 d
Outline: as §2

[17] = system: giant foxtail (Setaria faberii); assay: Test A preemergence; settings: Setaria faberi, pre-emergence, 240 h, 0 to 100 scale where 0 is no effect and 100 is complete control, read-out: Foxtail, Giant plant response rating; for pest or weed control at 31 g/ha: 31 g ai/ha, Preemergence; for pest or weed control at 125 g/ha: 125 g ai/ha, preemergence, visual injury rating, approximately 10 d
Outline: as §2

[18] = system: pigweed (Amaranthus retroflexus); assay: Test A preemergence; settings: Amaranthus retroflexus, pre-emergence, 240 h, 0 to 100 scale where 0 is no effect and 100 is complete control, read-out: Pigweed plant response rating; for pest or weed control at 31 g/ha: 31 g ai/ha, Preemergence; for pest or weed control at 125 g/ha: 125 g ai/ha, preemergence, visual injury rating, approximately 10 d

Compound | pest or weed control at 250 g/ha [1] | pest or weed control at 250 g/ha [2] | pest or weed control at 250 g/ha [3] | pest or weed control at 250 g/ha (rice (Oryra sativa)) | pest or weed control at 125 g/ha [4] | pest or weed control at 31 g/ha [4] | pest or weed control at 125 g/ha [5] | pest or weed control at 31 g/ha [5] | pest or weed control at 125 g/ha (Kochia (Kochia scoparia) [6]) | pest or weed control at 31 g/ha (Kochia (Kochia scoparia) [6]) | plant injury at 125 g/ha [7] | plant injury at 31 g/ha [7] | pest or weed control at 125 g/ha [8] | pest or weed control at 31 g/ha [8] | pest or weed control at 125 g/ha [9] | pest or weed control at 31 g/ha [9] | pest or weed control at 125 g/ha [10] | pest or weed control at 31 g/ha [10] | pest or weed control at 125 g/ha [11] | pest or weed control at 31 g/ha [11] | further results
CN1C[C@H](c2ccccc2)[C@@H](C(=O)Nc2cccc(F)c2F)C1=O [Compound 1282] | 90% | 100% | 0% | 30% | 40% | 0% | 100% | 90% | 60% | 0% | 50% | 0% | 70% | 40% | 40% | 0% | 80% | 80% | 20% | 0% | pest or weed control at 125 g/ha [12]: 0%; pest or weed control at 31 g/ha [12]: 0%; plant injury at 125 g/ha (corn (Zea mays)): 30%; plant injury at 31 g/ha (corn (Zea mays)): 0%; pest or weed control at 31 g/ha [13]: 0%; pest or weed control at 125 g/ha [13]: 90%; pest or weed control at 31 g/ha [14]: 100%; pest or weed control at 125 g/ha [14]: 100%; pest or weed control at 31 g/ha (Kochia (Kochia scoparia) [15]): 30%; pest or weed control at 125 g/ha (Kochia (Kochia scoparia) [15]): 70%; pest or weed control at 31 g/ha [16]: 30%; pest or weed control at 125 g/ha [16]: 70%; pest or weed control at 31 g/ha [17]: 100%; pest or weed control at 125 g/ha [17]: 100%; pest or weed control at 31 g/ha [18]: 60%; pest or weed control at 125 g/ha [18]: 80%
CN1C[C@H](c2cccc(C(F)(F)F)c2)[C@@H](C(=O)Nc2ccccc2-n2cccn2)C1=O [Compound 1284] | 0% | 0% | 0% | 0% | 0% | 0% | 0% | 0% | 0% | 0% | 0% | 0% | 0% | 0% | 0% | 0% | 0% | 0% | 0% | 0% | pest or weed control at 125 g/ha [12]: 0%; pest or weed control at 31 g/ha [12]: 0%; plant injury at 125 g/ha (corn (Zea mays)): 0%; plant injury at 31 g/ha (corn (Zea mays)): 0%; pest or weed control at 31 g/ha [13]: 0%; pest or weed control at 125 g/ha [13]: 0%; pest or weed control at 31 g/ha [14]: 0%; pest or weed control at 125 g/ha [14]: 0%; pest or weed control at 31 g/ha (Kochia (Kochia scoparia) [15]): 0%; pest or weed control at 125 g/ha (Kochia (Kochia scoparia) [15]): 0%; pest or weed control at 31 g/ha [16]: 0%; pest or weed control at 125 g/ha [16]: 0%; pest or weed control at 31 g/ha [17]: 0%; pest or weed control at 125 g/ha [17]: 0%; pest or weed control at 31 g/ha [18]: 0%; pest or weed control at 125 g/ha [18]: 0%
